The nature of data set [1]: Sensory evaluation of spray deodorant on cotton t-shirts: perceived fragrance intensity. Conditions: deodorant spray on t-shirt, immediately after application. An excerpt:
Test formulations comprising either fragrance formulation 1 containing the β-thio carbonyl derivative profragrance of formula (I), commercially available as HALOSCENT®-D, at the amounts indicated, or fragrance formulation 1 containing the 0-thio carbonyl derivative profragrance of formula (I), commercially available as HALOSCENT®-I were formulated as deodorant sprays.
One gram of each of the test formulation was applied to separate 2-3 year old cotton t-shirts. In parallel, control formulations, comprising fragrance formulation alone (i.e., lacking the β-thio carbonyl derivative profragrance of formula (I)) were similarly applied to separate t-shirts.
A minimum of 18 skilled panelists were asked to evaluate the intensity of the fragrance of the […], in a blind, balanced, randomized study, with a 20 second break between samples.
The panelists were asked to rank the intensity of the fragrance from 0 (not perceptible), to 10 (very strong odour). The results of the evaluation were analyzed using Analysis of Variance with Duncan's post-hoc analysis (α=0.05). The analyzed results are shown in FIG. 1, where the average for each sample at the times indicated are shown. The error bars indicate the 95% confidence level. ***=a significant difference at 99.9%; **=a significant difference at 99%; *=significant difference at 95%; NS=no significant difference.

Data set [2] is described as follows: Assessment of coloration of deodorant or antiperspirant formulations containing perfuming ingredients with or without Haloscent D. On the set-up: key: CO: color; COYE: yelow color; VSCOYE: very slight yellow color; SCOYE: slight yellow color; VCOYE: very yellow color; NC: no color; DECO: decoloration; CL: cloud; VCL: very cloud; WH: white; VCOBR: very brown color; COPI: ping color. Format: physicochemical. Conditions: perfuming ingredient 0.5 wt %, after 15 days. Here is the method: (§1) Preparation of an Antiperspirant Spray Formulation: Using a high speed stirrer, Silica (Table 1) and Quaternium-18-Hectorite (Table 1) were added to the Isopropyl miristate (Table 1) and Cyclomethicone mixture (Table 1). Once completely swollen, Aluminium Chlorohydrate (Table 1) was added portion wise under stirring until the mixture was homogeneous and without lumps. The aerosol cans were filled with 25% Suspension of the suspension and 75% of Propane/Butane (2.5 bar).
(§2) Preparation of Deodorant Spray Formulation: All the ingredients according to the sequence of the Table 2 were mixed and dissolved. Then the aerosol cans were filled, crimp and add the propellant (Aerosol filling: 40% active solution 60% Propane/Butane 2.5 bar).
(§3) Part A was prepared by sprinkling little by little the Hydroxyethylcellulose (Table 3) in the water (Table 3) whilst rapidly stirring with the turbine. Stirring was continued until the Hydroxyethylcellulose had entirely swollen and giving a limpid gel. Then, Part B (Table 3) was poured little by little in Part A whilst continuing stirring until the whole was homogeneous. Part C was added (Table 3).
(§4) Preparation of a Deodorant Stick Formulation: All the components of Part A were weighted (Table 4) and heated up to 70-75° C. Ceteareth-25 (Table 4) was added once the other Part A ingredients were mixed and heated. Once the Ceteareth-25 was dissolved, the Stearic Acid was added. Part B was prepared by dissolving the Triclosan (Table 4) in 1,2 Propylene Glycol (Table 4). Water which has evaporated was added. Slowly under mixing, Part B was poured into part A. To stock, a plastic bag into the bucket was put in to be sealed after cooling. Moulds was filled at about 70° C.
(§5) Preparation of an Antiperspirant Stick Formulation: All the components of Part A were weighted (Table 5), heated up to 70-75° C. and mixed well. Ingredient of Part B was dispersed in Part A. The mixture was mixed and putted into a tick at 65° C.
(§6) Assessment of Coloration in the Perfuming Ingredients: To set of deodorant or antiperspirant formulations of point a) to e) has been prepared. A perfuming ingredient (0.5 wt %—Table 6, 7 and 8) was added to the first set a and a perfuming ingredient (0.5 wt %—Table 6, 7 and 8) and Haloscent® D (0.5 wt %) were added to the second set. All these formulations were placed at 3° C. and 45° C. for several weeks. All formulations were evaluated in comparison with unperfumed deodorant or antiperspirant formulation. The coloration of each formulation was assessed by a minimum of 2 panelists.

Test in data set [3]: as above
Format: physicochemical. On the set-up: key: CO: color; COYE: yellow color; SCOYE: slight yellow color; VCOYE: very yellow color; NC: no color; DECO: discoloration; CL: cloud; VCL: very cloud; WH: white; VCOBR: very brown color; COPI: ping color. As to conditions: perfuming ingredient 0.5 wt %, after 15 days; for Coloration of deodorant spray: DEO SPRAY + Haloscent D 0.5 wt %; for Coloration of deodorant stick: DEO STICK + Haloscent D 0.5 wt %. Here is the method: as §1, §2, §3, §4, §5, §6

Test in data set [4]: as above
In kind it is physicochemical. More on the design: key to Coloration of antiperspirant stick: CO: color; COYE: yelow color; VSCOYE: very slight yellow color; SCOYE: slight yellow color; VCOYE: very yellow color; NC: no color; DECO: decoloration; CL: cloud; VCL: very cloud; WH: white; VCOBR: very brown color; COPI: ping color. As to conditions: perfuming ingredient 0.5 wt %; for Coloration of antiperspirant stick: after 7 days. Here is the method:
as §1, §2, §3, §4, §5, §6

Where [5] appears, read: AP SPRAY + Haloscent D 0.5 wt %, 3° C.
Setting [6] is: AP SPRAY + Haloscent D 0.5 wt %, 45° C.
Where [7] appears, read: DEO ROLL-ON + Haloscent D 0.5 wt %, 3° C.
Where [8] appears, read: DEO ROLL-ON + Haloscent D 0.5 wt %, 45° C.
[9] abbreviates: DEO STICK + Haloscent D 0.5 wt %, 3° C.
[10] abbreviates: DEO STICK + Haloscent D 0.5 wt %, 45° C.
[11] abbreviates: AP Stick + Haloscent D 0.5 wt %, 3° C.
The mark [12] stands for this setting: AP Stick + Haloscent D 0.5 wt %, 45° C.

For `CCCCCCCCCCCCSC(CC(C)=O)C1C(C)=CCCC1(C)C` (centres unmarked) [HALOSCENT®-I, 4-(dodecylthio)-4-(2,6,6-trimethylcyclohex-2-en-1-yl)butan-2-one], the “Perceived intensity of fragrance versus control formulation (FIG. 1)” value in data set [1] (fragrance formulation 1 containing 3% HALOSCENT-I) is “significant increases”.
As for “1-OXA-12-CYCLOHEXADECEN-2-ONE (A) + 1-OXA-13-CYCLOHEXADECEN-2-ONE [HABANOLIDE]”, the “Coloration of antiperspirant spray” value is “SCOYE” in data set [2] (setting [5]); “SCOYE” in data set [2] (setting [6]); “NC” in data set [2] (AP SPRAY, 3° C.); “NC” in data set [2] (AP SPRAY, 45° C.). In addition, the “Coloration of deodorant roll-on” value is given as “WH” in data set [2] (setting [7]); “VCL” in data set [2] (setting [8]); “VCL” in data set [2] (DEO ROLL-ON, 3° C.); “VCL” in data set [2] (DEO ROLL-ON, 45° C.). In addition, the “Coloration of deodorant spray” value in data set [2] (DEO SPRAY, 3° C.) is listed as “NC”; in data set [2] (DEO SPRAY, 45° C.) it was “NC”; in data set [3] (3° C.), “DECO”; in data set [3] (45° C.), “DECO”. Moreover, the “Coloration of deodorant stick” value in data set [2] (setting [9]) is listed as “NC”; in data set [2] (setting [10]) it was “NC”; in data set [2] (DEO STICK, 3° C.), “NC”; in data set [2] (DEO STICK, 45° C.) it was “NC”. The “Coloration of antiperspirant stick” value in data set [4] (setting [11]) is “DECO”; in data set [4] (setting [12]), “SCOYE”; in data set [4] (AP Stick, 3° C.) it was “DECO”; in data set [4] (AP Stick, 45° C.), “VSCOYE”.
Turning to `CCCCCCCCCCCCSC(C)CC(=O)C1C(C)C=CCC1(C)C` (centres unmarked) [Haloscent ® D, 3-(dodecylthio)-1-(2,6,6-trimethylcyclohex-3-en-1-yl)butan-1-one], the “Coloration of antiperspirant spray” value was “NC” in data set [2] (setting [5]) and “SCOYE” in data set [2] (setting [6]). Further, the “Coloration of deodorant roll-on” value in data set [2] (setting [7]) and in data set [2] (setting [8]) was “NC” throughout. Moreover, the “Coloration of deodorant spray” value in data set [2] (DEO SPRAY + Haloscent D 0.5 wt %, 3° C.) was “SCOYE”; in data set [3] (45° C.) it was “COYE”. In addition, the “Coloration of deodorant stick” value in data set [2] (setting [9]) was “NC”; in data set [4] (DEO STICK + Haloscent D 0.5 wt %, 45° C., after 15 days), “COYE CL”. The “Coloration of antiperspirant stick” value in data set [4] (setting [11]) and in data set [4] (setting [12]) was “DECO PI” in each case. Besides, the “Perceived intensity of fragrance versus control formulation (FIG. 1)” value in data set [1] (fragrance formulation 1 containing 1.2% HALOSCENT-D) was “significant increases”.
On to `O=C1CC/C=C\CCCCCCCCCC1` [EXALTENONE, (Z)-4-CYCLOPENTADECEN-1-ONE], for which the “Coloration of antiperspirant spray” value in data set [2] (setting [5]) is listed as “NC”; in data set [2] (setting [6]), “NC”; in data set [2] (AP SPRAY, 3° C.) it was “NC”; in data set [2] (AP SPRAY, 45° C.), “NC”. Moreover, the “Coloration of deodorant roll-on” value is “WH” in data set [2] (setting [7]); “CL” in data set [2] (setting [8]); “VCL” in data set [2] (DEO ROLL-ON, 3° C.); “VCL” in data set [2] (DEO ROLL-ON, 45° C.). Besides, the “Coloration of deodorant spray” value in data set [2] (DEO SPRAY, 3° C.) was “NC”; in data set [2] (DEO SPRAY, 45° C.), “NC”; in data set [3] (3° C.), “COYE”; in data set [3] (45° C.), “COYE”. Besides, the “Coloration of deodorant stick” value in data set [2] (setting [9]) is given as “NC”; in data set [2] (setting [10]), “NC”; in data set [2] (DEO STICK, 3° C.) it was “NC”; in data set [2] (DEO STICK, 45° C.), “NC”.
Turning to `CCC(=O)OCC(=O)O[C@@H](C)[C@@H]1CCCC(C)(C)C1` [ROMANDOLIDE, 2-{(1S)-1-[(1R)-3,3-dimethylcyclohexyl]ethoxy}-2-oxoethyl propionate], the “Coloration of deodorant roll-on” value in data set [2] (setting [7]) was “VCL”; in data set [2] (DEO ROLL-ON, 3° C.) it was “VCL”; in data set [2] (DEO ROLL-ON, 45° C.) it was “NC”; in data set [3] (setting [8]) it was “COYE”. Further, the “Coloration of deodorant stick” value in data set [2] (setting [9]) is “NC”; in data set [2] (setting [10]), “NC”; in data set [2] (DEO STICK, 3° C.), “NC”; in data set [2] (DEO STICK, 45° C.), “NC”.
As for `CC(C)=CCC/C(C)=C/CO` [(E)-3,7-DIMETHYL-2,6-OCTADIEN-1-OL], the “Coloration of deodorant roll-on” value in data set [2] (setting [7]) is listed as “NC”; in data set [2] (setting [8]) it was “NC”; in data set [2] (DEO ROLL-ON, 3° C.) it was “NC”; in data set [2] (DEO ROLL-ON, 45° C.), “NC”. Also, the “Coloration of deodorant stick” value in data set [2] (DEO STICK, 3° C.) is reported as “NC”; in data set [2] (DEO STICK, 45° C.), “NC”; in data set [3] (3° C.) it was “COYE”; in data set [3] (45° C.) it was “COYE”. Moreover, the “Coloration of antiperspirant stick” value in data set [4] (setting [11]) is reported as “VSCO”; in data set [4] (setting [12]) it was “NC”; in data set [4] (AP Stick, 3° C.) it was “DECO”; in data set [4] (AP Stick, 45° C.) it was “NC”.

Source of the values: US12016943B2, “Antiperspirant or deodorant composition” (Firmenich SA, priority 2016, dated 2024).
